Reference: BindingDB's records for doi:10.1111/j.1600-0773.1996.tb00261.x (Uppsala University, 1996)
Where a SMILES comes first, the peptide text is derived from it. [ ]: non-standard residue; d: D form. Met(O2) = CS(=O)(=O)CC[C@H](N)C(=O)O

The molecules below were run against Melanocortin receptor 4 (Homo sapiens, UniProt P32245).
Chain of Melanocortin receptor 4 (P32245 whole entry): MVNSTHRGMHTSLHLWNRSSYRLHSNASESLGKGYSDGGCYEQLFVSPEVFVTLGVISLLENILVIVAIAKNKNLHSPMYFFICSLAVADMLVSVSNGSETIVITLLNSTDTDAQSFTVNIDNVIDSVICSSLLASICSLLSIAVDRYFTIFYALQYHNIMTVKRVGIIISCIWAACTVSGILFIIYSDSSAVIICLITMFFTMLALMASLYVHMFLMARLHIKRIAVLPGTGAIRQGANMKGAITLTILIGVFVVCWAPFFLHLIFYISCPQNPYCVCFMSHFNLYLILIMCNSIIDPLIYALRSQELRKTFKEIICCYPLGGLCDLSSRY

Molecule	Ki [µM]
CSCC[C@H](N)C(=O)N[C@@H](CCC(=O)O)C(=O)N[C@@H](Cc1cnc[nH]1)C(=O)N[C@@H](Cc1ccccc1)C(=O)N[C@@H](CCCNC(=N)N)C(=O)N[C@@H](Cc1c[nH]c2ccccc12)C(=O)NCC(N)=O [NSC_123787]	> 10
H-SMEVRGW-OH [delta MSH]	> 10
H-YVMGHFRWDRFGRRNGSSSSGVGGAAQ-OH [Gamma3-MSH]	> 10

Next, values leading:

Ki [µM]	Molecule
> 10	CS(=O)(=O)CC[C@H](N)C(=O)N[C@@H](CCC(=O)O)C(=O)N[C@@H](Cc1c[nH]cn1)C(=O)N[C@@H](Cc1ccccc1)C(=O)N[C@H](CCCCN)C(=O)N[C@@H](Cc1ccccc1)C(=O)O [CAS_50913-82-1] (H-[Met(O2)]EHF[dK]F-OH)
0.693	H-SYSMEHFRWGKPVGKKRRPVKVYPNGAEDESAEAFPLEF-OH [ACTH]
